Source: ChEMBL document CHEMBL1144455, “A small molecule-kinase interaction map for clinical kinase inhibitors” (Nat Biotechnol, 2005)

How the values were obtained:
[1] = molecular target: Vascular endothelial growth factor receptor 2 (Homo sapiens, UniProt P35968)
[2] = molecular target: T1, Ephrin type-A receptor 6 (Homo sapiens, UniProt Q9UF33)
T1 sequence (Q9UF33 whole entry): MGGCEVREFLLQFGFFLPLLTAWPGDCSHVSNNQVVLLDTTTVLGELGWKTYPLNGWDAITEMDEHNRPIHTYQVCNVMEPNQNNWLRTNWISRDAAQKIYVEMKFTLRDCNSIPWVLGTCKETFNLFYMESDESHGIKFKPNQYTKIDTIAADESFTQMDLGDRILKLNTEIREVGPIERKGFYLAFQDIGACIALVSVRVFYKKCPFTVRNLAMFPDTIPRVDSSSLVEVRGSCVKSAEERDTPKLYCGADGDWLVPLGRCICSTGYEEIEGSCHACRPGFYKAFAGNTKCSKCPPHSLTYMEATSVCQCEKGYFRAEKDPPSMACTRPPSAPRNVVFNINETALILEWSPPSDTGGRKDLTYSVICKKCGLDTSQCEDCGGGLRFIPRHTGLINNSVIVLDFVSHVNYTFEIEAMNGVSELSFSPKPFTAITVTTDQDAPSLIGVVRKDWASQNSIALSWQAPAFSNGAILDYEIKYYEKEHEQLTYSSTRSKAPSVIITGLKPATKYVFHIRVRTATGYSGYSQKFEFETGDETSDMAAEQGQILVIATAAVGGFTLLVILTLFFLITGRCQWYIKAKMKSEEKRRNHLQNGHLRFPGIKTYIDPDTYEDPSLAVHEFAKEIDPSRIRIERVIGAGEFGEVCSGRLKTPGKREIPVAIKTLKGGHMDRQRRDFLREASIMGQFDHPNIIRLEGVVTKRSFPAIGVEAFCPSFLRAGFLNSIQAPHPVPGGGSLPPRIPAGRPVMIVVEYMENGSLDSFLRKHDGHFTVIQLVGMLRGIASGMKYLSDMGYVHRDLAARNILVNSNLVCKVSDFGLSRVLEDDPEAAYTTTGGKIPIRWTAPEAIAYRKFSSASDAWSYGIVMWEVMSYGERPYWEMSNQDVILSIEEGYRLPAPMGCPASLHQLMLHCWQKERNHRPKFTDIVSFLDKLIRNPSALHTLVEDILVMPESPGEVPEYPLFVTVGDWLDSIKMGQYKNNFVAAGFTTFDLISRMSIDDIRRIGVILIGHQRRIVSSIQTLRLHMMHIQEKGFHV

[3] = molecular target: T2, Ephrin type-B receptor 1 (Homo sapiens, UniProt P54762)
T2 sequence (P54762 whole entry): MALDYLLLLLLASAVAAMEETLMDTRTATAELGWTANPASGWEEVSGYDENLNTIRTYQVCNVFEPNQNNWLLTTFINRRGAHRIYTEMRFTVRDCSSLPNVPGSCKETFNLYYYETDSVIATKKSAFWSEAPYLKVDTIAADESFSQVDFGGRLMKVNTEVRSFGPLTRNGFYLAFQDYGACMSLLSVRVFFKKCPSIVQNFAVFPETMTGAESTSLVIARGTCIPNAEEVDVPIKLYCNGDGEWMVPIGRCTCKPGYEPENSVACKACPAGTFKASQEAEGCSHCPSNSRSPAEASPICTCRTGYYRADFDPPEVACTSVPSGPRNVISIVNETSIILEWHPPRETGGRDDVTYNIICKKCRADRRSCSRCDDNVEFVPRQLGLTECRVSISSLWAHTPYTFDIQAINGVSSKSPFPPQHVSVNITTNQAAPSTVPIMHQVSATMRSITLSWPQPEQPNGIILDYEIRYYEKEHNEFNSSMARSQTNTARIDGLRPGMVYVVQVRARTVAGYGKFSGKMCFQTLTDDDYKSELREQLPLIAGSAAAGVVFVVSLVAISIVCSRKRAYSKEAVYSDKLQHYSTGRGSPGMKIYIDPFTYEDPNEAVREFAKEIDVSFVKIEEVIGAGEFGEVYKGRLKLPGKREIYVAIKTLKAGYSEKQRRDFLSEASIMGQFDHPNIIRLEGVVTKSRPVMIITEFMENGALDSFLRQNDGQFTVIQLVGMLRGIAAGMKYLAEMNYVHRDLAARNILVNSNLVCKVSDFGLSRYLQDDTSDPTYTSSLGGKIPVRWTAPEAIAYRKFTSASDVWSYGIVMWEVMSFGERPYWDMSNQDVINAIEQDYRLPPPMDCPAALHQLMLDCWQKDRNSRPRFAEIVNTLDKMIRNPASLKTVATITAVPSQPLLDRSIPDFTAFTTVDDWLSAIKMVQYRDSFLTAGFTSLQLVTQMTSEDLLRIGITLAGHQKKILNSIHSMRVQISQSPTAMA

[4] = molecular target: T3, Phosphorylase b kinase gamma catalytic chain, liver/testis isoform (Homo sapiens, UniProt P15735)
T3 sequence (P15735 whole entry): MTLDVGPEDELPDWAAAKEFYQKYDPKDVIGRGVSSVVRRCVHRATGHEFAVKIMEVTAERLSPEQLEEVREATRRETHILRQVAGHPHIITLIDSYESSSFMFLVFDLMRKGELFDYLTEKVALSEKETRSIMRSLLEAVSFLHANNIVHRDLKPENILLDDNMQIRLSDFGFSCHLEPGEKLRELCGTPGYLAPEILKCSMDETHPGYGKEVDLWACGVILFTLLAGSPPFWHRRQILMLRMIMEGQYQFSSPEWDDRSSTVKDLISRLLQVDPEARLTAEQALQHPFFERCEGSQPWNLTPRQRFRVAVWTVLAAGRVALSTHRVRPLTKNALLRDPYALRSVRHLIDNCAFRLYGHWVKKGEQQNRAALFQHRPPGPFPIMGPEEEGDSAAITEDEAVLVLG

[5] = molecular target: Myosin light chain kinase 2, skeletal/cardiac muscle (Homo sapiens, UniProt Q9H1R3)
Sequence of Myosin light chain kinase 2, skeletal/cardiac muscle (Q9H1R3 whole entry): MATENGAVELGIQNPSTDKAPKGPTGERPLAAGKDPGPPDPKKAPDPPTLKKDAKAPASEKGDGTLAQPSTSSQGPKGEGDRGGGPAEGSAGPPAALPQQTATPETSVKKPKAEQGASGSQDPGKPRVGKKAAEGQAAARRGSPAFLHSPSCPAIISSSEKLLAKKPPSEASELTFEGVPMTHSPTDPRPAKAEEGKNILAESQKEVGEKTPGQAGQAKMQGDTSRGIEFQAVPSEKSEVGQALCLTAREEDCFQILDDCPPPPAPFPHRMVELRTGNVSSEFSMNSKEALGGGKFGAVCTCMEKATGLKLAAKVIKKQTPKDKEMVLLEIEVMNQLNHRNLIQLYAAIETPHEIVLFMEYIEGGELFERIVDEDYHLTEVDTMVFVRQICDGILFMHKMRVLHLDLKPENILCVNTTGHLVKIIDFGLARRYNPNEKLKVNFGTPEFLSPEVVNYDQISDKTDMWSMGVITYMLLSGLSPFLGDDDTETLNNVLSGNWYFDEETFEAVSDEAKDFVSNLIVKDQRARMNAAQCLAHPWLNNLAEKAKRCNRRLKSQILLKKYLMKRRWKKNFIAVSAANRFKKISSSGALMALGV

[6] = molecular target: Tyrosine-protein kinase Fyn (Homo sapiens, UniProt P06241)
Sequence of Tyrosine-protein kinase Fyn (P06241 whole entry): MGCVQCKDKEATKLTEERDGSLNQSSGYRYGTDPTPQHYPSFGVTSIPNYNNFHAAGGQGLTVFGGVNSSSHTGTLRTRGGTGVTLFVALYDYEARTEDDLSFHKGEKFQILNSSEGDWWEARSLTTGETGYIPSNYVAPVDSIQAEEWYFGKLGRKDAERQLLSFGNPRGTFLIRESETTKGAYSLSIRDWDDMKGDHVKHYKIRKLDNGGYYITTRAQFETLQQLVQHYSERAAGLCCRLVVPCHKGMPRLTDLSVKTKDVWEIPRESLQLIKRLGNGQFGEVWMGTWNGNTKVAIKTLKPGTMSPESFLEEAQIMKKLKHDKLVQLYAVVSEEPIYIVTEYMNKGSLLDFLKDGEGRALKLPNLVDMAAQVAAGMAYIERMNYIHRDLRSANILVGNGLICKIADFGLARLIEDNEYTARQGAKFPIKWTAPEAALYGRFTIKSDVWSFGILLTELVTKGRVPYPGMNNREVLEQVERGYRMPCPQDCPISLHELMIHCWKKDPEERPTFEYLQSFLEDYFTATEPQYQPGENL

[7] = molecular target: Calcium/calmodulin-dependent protein kinase type II subunit delta (Homo sapiens, UniProt Q13557)
Sequence of Calcium/calmodulin-dependent protein kinase type II subunit delta (Q13557 whole entry): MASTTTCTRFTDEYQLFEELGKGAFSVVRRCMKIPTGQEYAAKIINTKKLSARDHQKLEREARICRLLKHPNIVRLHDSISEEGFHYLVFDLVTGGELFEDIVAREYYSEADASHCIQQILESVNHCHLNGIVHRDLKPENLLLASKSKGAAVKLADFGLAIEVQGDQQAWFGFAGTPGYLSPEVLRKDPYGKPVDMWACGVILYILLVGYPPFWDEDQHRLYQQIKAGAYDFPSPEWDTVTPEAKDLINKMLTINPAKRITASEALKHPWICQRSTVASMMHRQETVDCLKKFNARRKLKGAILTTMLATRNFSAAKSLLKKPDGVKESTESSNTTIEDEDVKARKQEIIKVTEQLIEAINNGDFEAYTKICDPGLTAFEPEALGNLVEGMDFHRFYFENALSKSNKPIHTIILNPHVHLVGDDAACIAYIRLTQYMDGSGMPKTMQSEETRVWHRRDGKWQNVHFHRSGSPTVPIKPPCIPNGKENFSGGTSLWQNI

[8] = molecular target: Mast/stem cell growth factor receptor Kit (Homo sapiens, UniProt P10721)
Sequence of Mast/stem cell growth factor receptor Kit (P10721 whole entry): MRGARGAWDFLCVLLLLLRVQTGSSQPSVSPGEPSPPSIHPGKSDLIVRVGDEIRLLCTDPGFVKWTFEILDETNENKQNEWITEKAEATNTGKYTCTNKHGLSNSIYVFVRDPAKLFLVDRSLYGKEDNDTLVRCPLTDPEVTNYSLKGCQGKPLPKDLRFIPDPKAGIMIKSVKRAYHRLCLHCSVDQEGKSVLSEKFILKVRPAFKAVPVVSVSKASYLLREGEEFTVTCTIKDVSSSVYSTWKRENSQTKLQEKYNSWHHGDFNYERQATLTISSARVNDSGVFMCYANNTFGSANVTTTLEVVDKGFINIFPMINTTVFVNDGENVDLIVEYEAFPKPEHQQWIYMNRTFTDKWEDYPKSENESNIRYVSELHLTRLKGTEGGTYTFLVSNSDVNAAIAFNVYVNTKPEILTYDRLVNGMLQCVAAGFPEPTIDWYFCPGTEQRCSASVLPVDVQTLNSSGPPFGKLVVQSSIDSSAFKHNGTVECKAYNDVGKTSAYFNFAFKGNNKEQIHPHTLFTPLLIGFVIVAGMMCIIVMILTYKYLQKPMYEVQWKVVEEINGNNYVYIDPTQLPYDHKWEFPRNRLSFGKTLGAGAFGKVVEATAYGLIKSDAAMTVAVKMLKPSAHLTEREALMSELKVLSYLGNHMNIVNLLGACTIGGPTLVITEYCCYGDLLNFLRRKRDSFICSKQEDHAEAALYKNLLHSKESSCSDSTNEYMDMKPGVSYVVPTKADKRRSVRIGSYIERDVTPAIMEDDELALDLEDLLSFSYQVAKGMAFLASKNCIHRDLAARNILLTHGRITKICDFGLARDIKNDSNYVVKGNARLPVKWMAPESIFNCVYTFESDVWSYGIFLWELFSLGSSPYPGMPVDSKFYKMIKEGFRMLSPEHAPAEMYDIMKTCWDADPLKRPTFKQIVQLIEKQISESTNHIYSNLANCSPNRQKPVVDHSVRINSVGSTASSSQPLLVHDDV

[9] = molecular target: Cyclin-dependent kinase 2 (Homo sapiens, UniProt P24941)

Measured: Kd

Sequence of Vascular endothelial growth factor receptor 2 (P35968 whole entry): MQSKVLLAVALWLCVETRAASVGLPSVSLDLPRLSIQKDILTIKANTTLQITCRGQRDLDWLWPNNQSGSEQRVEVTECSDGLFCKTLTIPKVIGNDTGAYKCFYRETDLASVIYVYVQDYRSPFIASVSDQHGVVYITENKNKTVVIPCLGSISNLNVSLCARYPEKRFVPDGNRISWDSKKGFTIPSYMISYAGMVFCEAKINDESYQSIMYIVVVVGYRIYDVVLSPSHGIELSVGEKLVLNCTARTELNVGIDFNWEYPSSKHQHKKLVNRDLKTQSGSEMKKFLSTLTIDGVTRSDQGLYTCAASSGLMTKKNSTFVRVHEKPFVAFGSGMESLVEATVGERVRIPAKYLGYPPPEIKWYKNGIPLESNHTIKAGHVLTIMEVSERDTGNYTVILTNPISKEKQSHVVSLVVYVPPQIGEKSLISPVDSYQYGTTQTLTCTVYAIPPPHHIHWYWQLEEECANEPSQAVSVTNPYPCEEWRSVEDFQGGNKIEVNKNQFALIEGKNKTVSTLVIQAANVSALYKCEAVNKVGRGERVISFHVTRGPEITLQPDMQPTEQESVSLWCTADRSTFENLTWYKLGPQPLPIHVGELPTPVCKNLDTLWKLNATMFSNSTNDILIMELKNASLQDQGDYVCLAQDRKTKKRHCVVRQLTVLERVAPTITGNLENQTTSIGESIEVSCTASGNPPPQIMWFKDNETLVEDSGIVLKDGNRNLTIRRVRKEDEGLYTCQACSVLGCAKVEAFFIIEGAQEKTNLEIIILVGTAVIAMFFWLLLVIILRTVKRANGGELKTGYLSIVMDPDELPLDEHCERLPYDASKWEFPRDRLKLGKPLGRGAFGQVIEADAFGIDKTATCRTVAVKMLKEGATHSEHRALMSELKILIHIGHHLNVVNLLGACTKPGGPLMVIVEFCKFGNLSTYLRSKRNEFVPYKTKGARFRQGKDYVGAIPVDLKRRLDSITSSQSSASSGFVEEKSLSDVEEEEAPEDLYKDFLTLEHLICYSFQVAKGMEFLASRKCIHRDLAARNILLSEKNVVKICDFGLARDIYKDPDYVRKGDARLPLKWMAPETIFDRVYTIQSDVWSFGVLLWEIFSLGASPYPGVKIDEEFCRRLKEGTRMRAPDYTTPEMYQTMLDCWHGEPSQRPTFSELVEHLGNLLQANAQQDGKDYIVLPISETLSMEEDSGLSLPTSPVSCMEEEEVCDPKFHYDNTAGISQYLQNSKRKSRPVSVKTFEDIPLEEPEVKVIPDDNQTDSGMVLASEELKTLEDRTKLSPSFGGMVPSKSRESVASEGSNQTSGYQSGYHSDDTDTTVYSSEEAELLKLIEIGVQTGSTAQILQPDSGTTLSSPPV

CC[C@H](CO)Nc1nc(NCc2ccccc2)c2ncn(C(C)C)c2n1 [SELICICLIB]
not listed: [9]
Not Active: all other assays above

COc1cc2c(N3CCN(C(=O)Nc4ccc(OC(C)C)cc4)CC3)ncnc2cc1OCCCN1CCCCC1 [TANDUTINIB]
not listed: [1] | [8]
Not Active: all other assays above

Oc1ccc(-c2nc(-c3ccc(F)cc3)c(-c3ccncc3)[nH]2)cc1 [SB-202190]
Not Active: all assays above

C[S+]([O-])c1ccc(-c2nc(-c3ccc(F)cc3)c(-c3ccncc3)[nH]2)cc1 (stereo not given) [SB-203580]
Not Active: all assays above

CCOc1cc2ncc(C#N)c(Nc3ccc(F)c(Cl)c3)c2cc1NC(=O)/C=C/CN(C)C [PELITINIB]
Not Active: [1] | [9] | [7] | [8]

Cc1ccc(NC(=O)c2ccc(CN3CCN(C)CC3)cc2)cc1Nc1nccc(-c2cccnc2)n1 [IMATINIB]
not listed: [6] | [8] | [9]
Not Active: all other assays above

O=c1ncn2nc(Sc3ccc(F)cc3F)ccc2c1-c1c(Cl)cccc1Cl [NEFLAMAPIMOD]
not listed: [1] | [3]
Not Active: all other assays above

Oc1c2ccccc2c2c3c(cccc13)N=N2 [SP-600125]
not listed: [4] | [9]
Not Active: all other assays above

C#Cc1cccc(Nc2ncnc3cc(OCCOC)c(OCCOC)cc23)c1 [ERLOTINIB]
not listed: [2]
Not Active: all other assays above
